Measurements taken from patent US5691348A, “Pyridyl imidazole derivatives and processes for the preparation thereof” (Daewoo Electronics Co., Ltd., priority 1994, dated 1997).

Legend:
[1] = tested on: renal hypertensive rat; assay: Blood pressure lowering effect in renal hypertension; type: in vivo, Sprague-Dawley rat; conditions: Amount 3 mg; intravenous or oral (not specified)
From the text: To induce renal hypertension, left renal artery of 4 week-old male Sprague-Dawley rat (from The Korea Research Institute of Chemical Technology) was ligated. The rat was anesthetized with ether and the surgical region on the left abdomen of the rat was shaved, disinfected, and then incised about 1 cm vertically. The renal artery near abdominal aorta was isolated carefully from surrounding tissues and veins, and then ligated completely with a suture (4/0 sterile surgical silk). The muscular strata and skin of the surgical area were sutured with a suture (4/0 sterile surgical silk). The surgical region was disinfected to prevent infection and thereafter, 200 to 250 mg/kg/day of cephazolin sodium was injected intramuscularly for 2 days. 6 to 8 days after the ligation, rats showing systolic pressure of more than 180 mmHg were selected for renal hypertension test. The blood pressure was determined by a tail-cuff method from the tail under unanesthetized condition (Gerold, M. et al., Arzneimittel-Forsch., 18, 1285(1968)).
Each of the compounds to be tested was administered intravenously or orally into the renal hypertensive rat. The blood pressure of the rat was determined by direct method (Chiu, A. T. et al., J. Pharmacol. Exp. Ther., 250, 867(1989)) using a catheter. The rat was anesthetized with ketamine hydrochloride (125 mg/kg, i.p.) and a catheter was filled with saline and inserted into a carotid artery and […]. The surgical area was sutured with a metal clip. The rat was relaxed at least 3 hours and the catheter in the carotid artery was adapted to an isotec pressure transducer to determine the blood pressure and heart rate with a physiograph (Linearcorder WR3310). After the blood pressure was stabilized, the test compound was administered intravenously or orally. For intravenous administration, the administered volume and washing volume were 1.0 ml/kg and 0.2 ml, respectively. The blood pressure and heart rate were measured in regular intervals up to 24 hours after the administration of the test compound and compared with those measured after the administration of the control compound Losartan.
The test compound was dissolved in 0.05N KOH for intravenous administration and suspended in Tween 80 for oral administration.

[2] = tested on: furosemide-administered dogs; assay: Duration of action in furosemide-administered dogs; type: in vivo, dog; conditions: 0.3 mg oral
Description: (§1) A number of dog was fed freely in a feeding room and those weighing 7 to 12 kg in good health were selected regardless of their gender.
(§2) The test dog was anesthetized with 30 mg/kg of pentobarbital sodium by intravenous injection and the left femoral artery and femoral vein were separated carefully. Silicone catheter, specially prepared and filled with saline treated with heparin (1,000 IU/ml), was cannulated into the blood vessels. After the surgery, the dog was constrained to measure the blood pressure continuously with Gould 2000 physiograph adapted to a Grass P23XL pressure transducer; and the heart rate was monitored with ECG/Biotacho amplifier. The dog was tested at least 2 days after the surgery.
10 mg/kg of furosemide was injected intramuscularly 18 hours (in case of intravenous injection, 2 hours) before the beginning of the test (administration of the test compound) to improve the activity of renin in blood plasma. After the injection of furosemide, neither food nor water was provided. […] The blood pressure and heart rate were measured up to 8 hours after the administration of each test compound.
The compound of Example 1 and the Merck compound were administered orally to the furosemide-administrated dogs as in test 3(i), and blood pressure lowering effect was measured with time.

[3] = tested on: unanesthetized dogs; assay: Maximum blood pressure lowering effect in unanesthetized dogs at different amounts; type: in vivo, dog
Description: as §1, §2
10 mg/kg of furosemide was injected intramuscularly 18 hours (in case of intravenous injection, 2 hours) before the beginning of the test (administration of the test compound) to improve the activity of renin in blood plasma. After the injection of furosemide, neither food nor water was provided. The test compound was suspended in Tween 80 and administered in an amount of 20 mg/kg orally. The blood pressure and heart rate were measured up to 8 hours after the administration of each test compound.
The maximum blood pressure lowering effect of the present compounds and the control compounds were determined in different amounts of administration using the same method as (i) and the results are given in Table 4.

SMILES: CCCCc1nc2cc(-c3cccc[n+]3[O-])c(CO)nc2n1Cc1ccc(-c2ccccc2-c2nn[nH]n2)cc1 [Example 1, 2-Butyl-5-hydroxymethyl-6-(1-oxy-pyridin-2-yl)-3-[2'-(1H-tetrazol-5-yl)-biphenyl-4-ylmethyl]-3H-imidazo[4,5-b]pyridine]
- Maximum Blood Pressure Lowering Effect [1]: -60%
- Maximum Blood Pressure Lowering Effect ([2]; 0 min): 0.0%
- Maximum Blood Pressure Lowering Effect ([2]; 10 min): 2.2%
- Maximum Blood Pressure Lowering Effect ([2]; 20 min): -1.1%
- Maximum Blood Pressure Lowering Effect ([2]; 30 min): -5.9%
- Maximum Blood Pressure Lowering Effect ([2]; 60 min): -11.4%
- Maximum Blood Pressure Lowering Effect ([2]; 90 min): -12.9%
- Maximum Blood Pressure Lowering Effect ([2]; 120 min): -14.8%
- Maximum Blood Pressure Lowering Effect ([2]; 150 min): -16.1%
- Maximum Blood Pressure Lowering Effect ([2]; 180 min): -16.7%
- Maximum Blood Pressure Lowering Effect ([2]; 210 min): -17.4%
- Maximum Blood Pressure Lowering Effect ([2]; 240 min): -18.2%
- Maximum Blood Pressure Lowering Effect ([2]; 270 min): -17.0%
- Maximum Blood Pressure Lowering Effect ([2]; 300 min): -20.5%
- Maximum Blood Pressure Lowering Effect ([2]; 330 min): -20.7%
- Maximum Blood Pressure Lowering Effect ([2]; 360 min): -20.4%
- Maximum Blood Pressure Lowering Effect ([2]; 390 min): -20.1%
- Maximum Blood Pressure Lowering Effect ([2]; 420 min): -20.5%
- Maximum Blood Pressure Lowering Effect ([2]; 450 min): -20.5%
- Maximum Blood Pressure Lowering Effect ([2]; 480 min): -20.0%
- time for which the maximum blood pressure lowering effect lasted after the administration ([2]; Table 6, dogs): up to 8 hours
- Maximum Blood Pressure Lowering Effect ([3]; 0.3 mg/kg): -17%
- Maximum Blood Pressure Lowering Effect ([3]; 1 mg/kg): -25%
